Data published in US7105534B2, “Imidazo[1,2-α]pyridine ether compounds as ion channel modulators” (Cardiome Pharma Corp., priority 2000, dated 2006).
Where a name gives a salt, the structure may show the parent alone.

How the values were obtained:
Format in all cases: cell-based
Kv4.2 = biological target: T1, Kv4.2 (Homo sapiens, UniProt Q9NZV8); test: Patch-clamp inhibition of cloned ion channel current in transfected HEK cells: Kv4.2; details: integrated current, -80 mV to +60 mV
T1 construct: expressed in transfected cells; host or cells: HEK cells, transient transfection, vector pCDNA3
T1 sequence (Q9NZV8 1-630): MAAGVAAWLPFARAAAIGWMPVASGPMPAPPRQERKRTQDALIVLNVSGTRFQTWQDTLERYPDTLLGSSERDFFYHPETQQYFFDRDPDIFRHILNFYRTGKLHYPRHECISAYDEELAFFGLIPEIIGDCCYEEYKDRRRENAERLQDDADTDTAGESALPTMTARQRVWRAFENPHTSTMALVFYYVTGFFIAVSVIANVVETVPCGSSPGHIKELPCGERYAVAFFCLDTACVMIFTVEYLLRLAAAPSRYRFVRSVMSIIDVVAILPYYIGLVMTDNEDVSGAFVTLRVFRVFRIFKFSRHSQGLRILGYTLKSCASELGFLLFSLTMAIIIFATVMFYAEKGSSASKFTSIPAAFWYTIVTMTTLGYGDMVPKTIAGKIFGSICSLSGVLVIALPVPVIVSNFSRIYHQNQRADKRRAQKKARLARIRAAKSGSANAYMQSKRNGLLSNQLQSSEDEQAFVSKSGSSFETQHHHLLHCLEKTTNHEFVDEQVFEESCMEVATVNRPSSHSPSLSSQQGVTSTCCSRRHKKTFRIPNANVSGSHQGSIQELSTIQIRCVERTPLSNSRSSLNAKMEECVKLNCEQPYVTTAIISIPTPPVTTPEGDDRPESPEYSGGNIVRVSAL
Method: (§1) The relevant cloned ion channels (e.g. cardiac hH1, Kv1.4, Kv1.5, Kv4.2, Kv2.1, HERG etc.) are studied by transient transfection into HEK cells using the mammalian expression vector pCDNA3. Transfections for each channel type are carried out separately to allow individual study of the ion channel of interest. Cells expressing channel protein are detected by cotransfecting cells with the vector pHook-1 (Invitrogen, San Diego, Calif., USA). […] Equal concentrations of individual channel and pHook DNA are incubated with 10× concentration of lipofectAce in Modified Eagle's Medium (MEM, Canadian Life Technologies) and incubated with parent HEK cells plated on 25 mm culture dishes. After 3–4 hours the solution is replaced with a standard culture medium plus 20% fetal bovine serum and 1% antimycotic. Transfected cells are maintained at 37C in an air/5% CO2 incubator in 25 mm Petri dishes plated on glass coverslips for 24–48 hours to allow channel expression to occur. 20 min prior to experiments, cells are treated with beads coated with phOX. After 15 min, excess beads are […] off with cell culture medium and cells which had beads stuck to them are used for electrophysiological tests.
(§2) For whole-cell recording the control pipette filling solution contained (in mM): KCl, 130; EGTA, 5; MgCl2, 1; HEPES, 10; Na2ATP, 4; GTP, 0.1; and is adjusted to pH 7.2 with KOH. The control bath solution contained (in mM): NaCl, 135; KCI, 5; sodium acetate, 2.8; MgCl2, 1; HEPES, 10; CaCl2, 1; and is adjusted to pH 7.4 with NaOH. The test ion channel modulating compound is dissolved to 10 mM stock solutions in water and used at concentrations between 0.5 and 100 μM.
(§3) Coverslips containing cells are removed from the incubator before experiments and placed in a superfusion chamber (volume 250 μl) containing the control bath solution at 22C to 23C. All recordings are made via the variations of the patch-clamp technique, using an Axopatch 200A amplifier (Axon Instruments, CA). Patch electrodes are pulled from thin-walled borosilicate glass (World Precision Instruments; FL) on a horizontal micropipette puller, fire-polished, and filled with appropriate solutions. Electrodes had resistances of […] when filled with control filling solution. Analog capacity compensation is used in all whole cell measurements. In some experiments, leak subtraction is applied to data. Membrane potentials have not been corrected for any junctional potentials that arose between the pipette and bath solution. Data are filtered at 5 to 10 kHz before digitization and stored on a microcomputer for later analysis using the pClamp6 software (Axon Instruments, Foster City, Calif.). Due to the high level of expression of channel cDNA's in HEK cells, there is no need for signal averaging. The average cell capacitance is quite small, and the absence of ionic current at negative membrane potentials allowed faithful leak subtraction of data.
(§4) The concentration-response curves for changes in peak and steady-state current produced by the test compound are computer-fitted to the Hill equation: f=1−1/[1+([…])^n] [1]
(§5) where f is the fractional current (f=Idrug/Icontrol) at drug concentration [D]; IC50 is the concentration producing half-maximal inhibition and n is the Hill coefficient.
(§6) Compounds of the present invention may be evaluated by this method. […] Block is determined from the decrease in peak hH1 Na^+ current, or in steady-state Kv1.5 and integrated Kv4.2 current in the presence of drug. To record Na^+ current, cells are depolarized from the holding potential of −100 mV to a voltage of −30 mV for 10 ms to fully open and inactivate the channel. To record Kv1.5 and Kv4.2 current, cells are depolarized from the holding potential of −80 mV to a voltage of +60 mV for 200 ms to fully open the channel. Currents are recorded in the steady-state at a range of drug concentrations during stimulation every 4 s. […]

hH1 Na+ current = biological target: T2, hH1 Na+ current (Homo sapiens, UniProt Q14524); test: Patch-clamp inhibition of cloned ion channel current in transfected HEK cells: Na; details: peak hH1 Na+ current, -100 mV to -30 mV
T2 construct: expressed in transfected cells; host or cells: HEK cells, transient transfection, vector pCDNA3
T2 sequence (Q14524 whole entry): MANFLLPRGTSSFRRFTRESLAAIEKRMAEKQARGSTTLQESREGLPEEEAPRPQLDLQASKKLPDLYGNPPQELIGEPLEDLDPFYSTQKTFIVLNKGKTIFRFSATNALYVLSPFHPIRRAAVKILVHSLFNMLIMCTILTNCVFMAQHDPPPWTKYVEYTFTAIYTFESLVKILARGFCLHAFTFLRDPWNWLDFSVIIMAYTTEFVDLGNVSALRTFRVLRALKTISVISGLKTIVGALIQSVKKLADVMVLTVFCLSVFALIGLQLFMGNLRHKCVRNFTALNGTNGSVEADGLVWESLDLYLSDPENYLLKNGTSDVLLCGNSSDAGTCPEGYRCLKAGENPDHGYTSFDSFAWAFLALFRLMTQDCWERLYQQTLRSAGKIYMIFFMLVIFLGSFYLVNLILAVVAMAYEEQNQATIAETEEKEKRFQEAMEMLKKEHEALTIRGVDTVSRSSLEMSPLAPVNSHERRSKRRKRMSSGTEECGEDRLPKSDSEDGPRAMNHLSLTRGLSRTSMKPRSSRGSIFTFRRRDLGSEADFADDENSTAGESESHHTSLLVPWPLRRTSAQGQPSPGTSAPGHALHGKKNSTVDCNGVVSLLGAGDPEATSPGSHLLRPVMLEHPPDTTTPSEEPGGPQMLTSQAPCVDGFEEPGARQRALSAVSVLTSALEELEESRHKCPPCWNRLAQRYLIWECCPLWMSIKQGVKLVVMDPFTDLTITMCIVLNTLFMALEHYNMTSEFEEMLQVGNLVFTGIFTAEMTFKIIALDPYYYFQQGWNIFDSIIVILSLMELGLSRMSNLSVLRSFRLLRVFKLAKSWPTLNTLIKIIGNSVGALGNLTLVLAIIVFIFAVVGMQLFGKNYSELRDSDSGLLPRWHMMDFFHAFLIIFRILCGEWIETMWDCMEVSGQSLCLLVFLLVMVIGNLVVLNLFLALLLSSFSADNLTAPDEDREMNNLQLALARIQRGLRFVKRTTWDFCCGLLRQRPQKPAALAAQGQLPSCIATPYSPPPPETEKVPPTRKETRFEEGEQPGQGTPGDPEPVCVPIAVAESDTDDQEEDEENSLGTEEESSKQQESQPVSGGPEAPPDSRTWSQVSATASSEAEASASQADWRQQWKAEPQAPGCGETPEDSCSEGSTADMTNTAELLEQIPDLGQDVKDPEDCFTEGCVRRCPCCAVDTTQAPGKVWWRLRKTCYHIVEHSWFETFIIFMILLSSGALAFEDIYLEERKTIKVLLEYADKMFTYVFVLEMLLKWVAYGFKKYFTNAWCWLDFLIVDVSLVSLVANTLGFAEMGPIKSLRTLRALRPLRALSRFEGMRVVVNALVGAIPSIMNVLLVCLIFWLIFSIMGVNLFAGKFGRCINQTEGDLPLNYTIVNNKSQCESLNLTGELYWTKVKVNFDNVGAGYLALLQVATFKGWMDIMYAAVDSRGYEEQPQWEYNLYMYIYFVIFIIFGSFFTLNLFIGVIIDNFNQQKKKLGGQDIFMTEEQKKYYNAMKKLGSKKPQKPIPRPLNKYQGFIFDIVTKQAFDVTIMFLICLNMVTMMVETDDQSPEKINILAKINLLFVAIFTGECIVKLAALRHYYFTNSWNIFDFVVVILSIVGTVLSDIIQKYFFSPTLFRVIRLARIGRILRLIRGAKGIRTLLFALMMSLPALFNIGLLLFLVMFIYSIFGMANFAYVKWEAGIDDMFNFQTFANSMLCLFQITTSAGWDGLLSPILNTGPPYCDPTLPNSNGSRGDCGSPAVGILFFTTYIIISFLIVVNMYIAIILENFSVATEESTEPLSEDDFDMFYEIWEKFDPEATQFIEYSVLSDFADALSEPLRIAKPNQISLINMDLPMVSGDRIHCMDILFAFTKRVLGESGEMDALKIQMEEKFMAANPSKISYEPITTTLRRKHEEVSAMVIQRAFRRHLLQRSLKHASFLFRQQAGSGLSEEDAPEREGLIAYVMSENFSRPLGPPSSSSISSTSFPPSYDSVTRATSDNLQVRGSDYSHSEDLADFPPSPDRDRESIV
Method: as §1, §2, §3, §4, §5, §6

HERG = biological target: T3, HERG (Homo sapiens, UniProt Q12809); test: Patch-clamp inhibition of cloned ion channel current in transfected HEK cells: HERG; details: whole-cell patch clamp
T3 construct: expressed in transfected cells; host or cells: HEK cells, transient transfection, vector pCDNA3
T3 sequence (Q12809 whole entry): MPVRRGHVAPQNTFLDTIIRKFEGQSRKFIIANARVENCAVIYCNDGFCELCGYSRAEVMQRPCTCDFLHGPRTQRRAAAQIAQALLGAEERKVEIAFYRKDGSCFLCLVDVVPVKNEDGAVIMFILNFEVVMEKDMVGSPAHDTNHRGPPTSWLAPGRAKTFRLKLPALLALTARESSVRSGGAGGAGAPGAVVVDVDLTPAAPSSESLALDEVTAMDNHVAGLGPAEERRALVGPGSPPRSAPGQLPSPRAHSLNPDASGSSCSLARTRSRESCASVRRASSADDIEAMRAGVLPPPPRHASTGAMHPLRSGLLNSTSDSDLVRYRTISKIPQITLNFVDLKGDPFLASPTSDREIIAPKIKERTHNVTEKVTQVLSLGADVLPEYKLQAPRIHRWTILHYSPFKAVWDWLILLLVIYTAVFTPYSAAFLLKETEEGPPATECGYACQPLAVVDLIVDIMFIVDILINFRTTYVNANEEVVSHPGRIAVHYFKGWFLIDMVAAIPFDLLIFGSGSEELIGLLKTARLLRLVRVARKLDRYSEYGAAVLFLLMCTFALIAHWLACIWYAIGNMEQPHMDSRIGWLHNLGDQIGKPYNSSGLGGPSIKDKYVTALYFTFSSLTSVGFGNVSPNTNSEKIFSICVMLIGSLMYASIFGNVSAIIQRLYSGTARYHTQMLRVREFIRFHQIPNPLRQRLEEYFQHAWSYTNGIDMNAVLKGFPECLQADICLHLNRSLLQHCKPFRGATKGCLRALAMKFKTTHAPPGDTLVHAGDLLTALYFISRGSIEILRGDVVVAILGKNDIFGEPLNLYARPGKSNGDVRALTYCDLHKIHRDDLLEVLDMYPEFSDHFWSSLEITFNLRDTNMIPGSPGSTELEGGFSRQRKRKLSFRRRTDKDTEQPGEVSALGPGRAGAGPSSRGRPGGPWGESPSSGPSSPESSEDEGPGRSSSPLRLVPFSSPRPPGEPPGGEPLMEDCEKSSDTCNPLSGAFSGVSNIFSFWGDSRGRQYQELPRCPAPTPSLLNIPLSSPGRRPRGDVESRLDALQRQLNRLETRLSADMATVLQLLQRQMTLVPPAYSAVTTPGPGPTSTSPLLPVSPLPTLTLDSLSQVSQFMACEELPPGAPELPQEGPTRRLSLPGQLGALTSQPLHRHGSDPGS
Method: as §1, §2, §3, §4, §5, §6

Kv1.5 = biological target: T4, Kv1.5 (Homo sapiens, UniProt P22460); test: Patch-clamp inhibition of cloned ion channel current in transfected HEK cells: Kv1.5; details: steady-state current, -80 mV to +60 mV
T4 construct: expressed in transfected cells; host or cells: HEK cells, transient transfection, vector pCDNA3
T4 sequence (P22460 whole entry): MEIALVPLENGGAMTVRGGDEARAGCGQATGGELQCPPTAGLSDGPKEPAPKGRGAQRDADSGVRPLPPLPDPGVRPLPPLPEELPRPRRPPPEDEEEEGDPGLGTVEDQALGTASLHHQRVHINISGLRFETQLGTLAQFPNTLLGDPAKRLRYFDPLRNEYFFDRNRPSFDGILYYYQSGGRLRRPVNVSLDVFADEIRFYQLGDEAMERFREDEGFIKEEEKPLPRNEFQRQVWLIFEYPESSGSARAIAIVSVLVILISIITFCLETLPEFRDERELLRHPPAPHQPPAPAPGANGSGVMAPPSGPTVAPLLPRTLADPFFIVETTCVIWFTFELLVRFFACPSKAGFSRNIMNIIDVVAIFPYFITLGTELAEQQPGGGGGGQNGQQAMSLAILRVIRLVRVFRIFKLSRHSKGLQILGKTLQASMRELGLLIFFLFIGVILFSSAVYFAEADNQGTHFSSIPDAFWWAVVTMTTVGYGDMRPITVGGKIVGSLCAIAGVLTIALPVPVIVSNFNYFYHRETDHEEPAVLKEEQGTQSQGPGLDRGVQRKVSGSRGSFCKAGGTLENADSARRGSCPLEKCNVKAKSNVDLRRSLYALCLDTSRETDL
Method: as §1, §2, §3, §4, §5, §6

| IC50 (Kv4.2) | IC50 (hH1 Na+ current) | IC50 (Kv1.5) | Structure (SMILES) | IC50 (HERG) |
| --- | --- | --- | --- | --- |
| 0.8 µM | 1 µM | 0.1 µM | CCc1cn2cccc(OCCCc3ccc(Cl)cc3Cl)c2n1 [Compound 4, 8-[3-(2,4-DICHLOROPHENYL)PROPOXY]-2-ETHYLIMIDAZO[1,2-α]PYRIDINE MONOHYDROCHLORIDE] | 0.02 µM |
| 71 µM | 239 µM | 170 µM | Clc1ccc(CCCOc2cccn3cc(-c4ccccc4)nc23)c(Cl)c1 [Compound 5, 8-[3-(2,4-DICHLOROPHENYL)PROPOXY]-2-PHENYLIMIDAZO[1,2-α]PYRIDINE MONOHYDROCHLORIDE] | 0.9 µM |
| 0.9 µM | 0.3 µM | 0.8 µM | Cc1cn2cccc(OCCCc3c(Cl)cccc3Cl)c2n1 [Compound 6, 8-[3-(2,6-DICHLOROPHENYL)PROPOXY]-2-Methylimidazo[1,2-α]PYRIDINE MONOHYDROCHLORIDE] | 0.3 µM |
| 10 µM | 15 µM | 5 µM | Cc1cn2cccc(OCc3ccccc3C(F)(F)F)c2n1 [Compound 7, 2-METHYL-8-[2-(TRIFLUOROMETHYL)BENZYLOXY]IMIDAZO[1,2-α]PYRIDINE MONOHYDROCHLORIDE] | 0.8 µM |
| 11 µM | 1210 µM | 0.8 µM | Cc1cn2cccc(OCc3ccc(Cl)cc3Cl)c2n1 [Compound 8, 8-[2,4-DICHLOROBENZYLOXY]-2-METHYLIMIDAZO[1,2-α]PYRIDINE MONOHYDROCHLORIDE] | 0.4 µM |
| 14 µM | 152 µM | 11 µM | Cc1cn2cccc(OCCCOCc3ccccc3)c2n1 [Compound 11, 8-[3-BENZYLOXY-1-PROPOXY]-2-METHYLIMIDAZO[1,2-α]PYRIDINE MONOHYDROCHLORIDE] | 0.08 µM |
| 1 µM | 3 µM | 0.6 µM | Cc1cn2cccc(OCCC(c3ccccc3)c3ccccc3)c2n1 [Compound 12, 8-[3,3-DIPHENYL-1-PROPOXY]-2-METHYLIMIDAZO[1,2-α]PYRIDINE MONOHYDROCHLORIDE] | 0.004 µM |
| 3 µM | 8 µM | 0.7 µM | Cc1cn2cccc(OCC3(c4ccccc4)CC3)c2n1 [Compound 13, 2-METHYL-8-[(1-PHENYL-CYCLOPROPYL)METHOXY]IMIDAZO[1,2-α]PYRIDINE MONOHYDROCHLORIDE] | 0.4 µM |
| 0.6 µM | 8 µM | 0.1 µM | FC(F)(F)c1cn2cccc(OCCCc3ccc(Cl)cc3Cl)c2n1 [Compound 15, 8-[3-(2,4-DICHLOROPHENYL)PROPOXY]-2-(TRIFLUOROMETHYL)IMIDAZO[1,2-α]PYRIDINE MONOHYDROCHLORIDE] | 1 µM |
|  |  | 4 µM | Cc1nc2c(OCC3(c4ccccc4)CC3)cccn2c1CO [Compound 31, {2-METHYL-8-[(1-PHENYLCYCLOPROPYL)METHOXY]IMIDAZO[1,2-α]PYRIDIN-3-yl}-METHANOL MONOHYDROCHLORIDE] | 3 µM |
|  |  | 4 µM | Cc1cn2c(C)ccc(OCCCc3ccccc3)c2n1 [Compound 32, 2,5-DIMETHYL-8-(3-PHENYLPROPOXY)IMIDAZO[1,2-α]PYRIDINE MONOHYDROCHLORIDE] | 0.3 µM |
|  |  | 3 µM | Cc1cn2c(C)ccc(OCC3(c4ccccc4)CC3)c2n1 [Compound 33, 2,5-DIMETHYL-8-[(1-PHENYL-CYCLOPROPYL)METHOXY]IMIDAZO[1,2-α]PYRIDINE MONOHYDROCHLORIDE] | 0.9 µM |
|  |  | 1 µM | Cc1cn2c(C)ccc(OCCCc3ccc(Cl)cc3Cl)c2n1 [Compound 34, 8-[3-(2,4-DICHLOROPHENYL)PROPOXY]-2,5-DIMETHYLIMIDAZO[1,2-α]PYRIDINE MONOHYDROCHLORIDE] | 0.04 µM |
|  |  | 18 µM | Cc1nc2c(OCCCc3ccc(Cl)cc3Cl)cccn2c1C(=O)O [Compound 37, SODIUM 8-[3-(2,4-DICHLOROPHENYL)PROPOXY]-2-METHYLIMIDAZO[1,2-α]PYRIDINE-3-CARBOXYLATE] | 4 µM |
|  |  | 0.4 µM | CC(C)c1cn2cccc(OCC3(c4ccccc4)CC3)c2n1 [Compound 38, 2-ISOPROPYL-8-[(1-PHENYL-CYCLOPROPYL)METHOXY]IMIDAZO[1,2-α]PYRIDINE MONOHYDROCHLORIDE] | 1 µM |
|  |  | 0.7 µM | Cc1nc2c(OCC3(c4ccccc4)CC3)cccn2c1Cl [Compound 39, 3-CHLORO-2-METHYL-8-[(1-PHENYL-CYCLOPROPYL)METHOXY]IMIDAZO[1,2-α]PYRIDINE MONOHYDROCHLORIDE] | 3 µM |
|  |  | 23 µM | Cc1nc2c(OCC3(c4ccccc4)CC3)cccn2c1CN(C)C [Compound 40, 3-(DIMETHYLAMINO)METHYL-2-METHYL-8-[(1-PHENYL-CYCLOPROPYL)METHOXY]-IMIDAZO[1,2-α]PYRIDINE DIHYDROCHLORIDE] | 1 µM |
|  |  | 5 µM | CC(=O)Nc1c(C)nc2c(OCCCc3ccc(Cl)cc3Cl)cccn12 [Compound 41, 3-ACETAMIDO-8-[3-(2,4-DICHLOROPHENYL)PROPOXY]-2-METHYLIMIDAZO[1,2-α]PYRIDINE MONOHYDROCHLORIDE] | 0.6 µM |
|  |  | 1.6 µM | Cc1nc2c(OCC3(c4ccccc4)CC3)cccn2c1N [Compound 43, 3-AMINO-2-METHYL-8-[(1-PHENYL-CYCLOPROPYL)METHOXy]IMIDAZO[1,2-α]PYRIDINE MONOHYDROCHLORIDE] | 0.7 µM |

| Structure (SMILES) | IC50 (Kv4.2) | IC50 (hH1 Na+ current) | IC50 (Kv1.5) | IC50 (HERG) |
| --- | --- | --- | --- | --- |
| Cc1cn2cccc(OCCCC3CCCCC3)c2n1 [Compound 9, 8-[(3-CYCLOHEXYL)PROPOXY]-2-METHYLIMIDAZO[1,2-α]PYRIDINE MONOHYDROCHLORIDE] | 3 µM | 14 µM | 1 µM | 0.05 µM |
| Cc1cn2cccc(OCCCCCc3ccccc3)c2n1 [Compound 10, 2-METHYL-8-[5-PHENYL-1-PENTOXY]IMIDAZO[1,2-α]PYRIDINE MONOHYDROCHLORIDE] | 1 µM | 12 µM | 0.8 µM | 0.1 µM |
